Read-outs that look alike come from different tables or passages of the source.
Legend:
PKC [1] = assay: PKC affinity of bryostatin and bryologs; assay type: binding
From the text: Structurally, they are all similar.

PKC [2] = settings: cited from earlier work
PKCε = target: T1, PKCε (Homo sapiens, UniProt Q02156); settings: cited from earlier work
T1 sequence (Q02156 1-737): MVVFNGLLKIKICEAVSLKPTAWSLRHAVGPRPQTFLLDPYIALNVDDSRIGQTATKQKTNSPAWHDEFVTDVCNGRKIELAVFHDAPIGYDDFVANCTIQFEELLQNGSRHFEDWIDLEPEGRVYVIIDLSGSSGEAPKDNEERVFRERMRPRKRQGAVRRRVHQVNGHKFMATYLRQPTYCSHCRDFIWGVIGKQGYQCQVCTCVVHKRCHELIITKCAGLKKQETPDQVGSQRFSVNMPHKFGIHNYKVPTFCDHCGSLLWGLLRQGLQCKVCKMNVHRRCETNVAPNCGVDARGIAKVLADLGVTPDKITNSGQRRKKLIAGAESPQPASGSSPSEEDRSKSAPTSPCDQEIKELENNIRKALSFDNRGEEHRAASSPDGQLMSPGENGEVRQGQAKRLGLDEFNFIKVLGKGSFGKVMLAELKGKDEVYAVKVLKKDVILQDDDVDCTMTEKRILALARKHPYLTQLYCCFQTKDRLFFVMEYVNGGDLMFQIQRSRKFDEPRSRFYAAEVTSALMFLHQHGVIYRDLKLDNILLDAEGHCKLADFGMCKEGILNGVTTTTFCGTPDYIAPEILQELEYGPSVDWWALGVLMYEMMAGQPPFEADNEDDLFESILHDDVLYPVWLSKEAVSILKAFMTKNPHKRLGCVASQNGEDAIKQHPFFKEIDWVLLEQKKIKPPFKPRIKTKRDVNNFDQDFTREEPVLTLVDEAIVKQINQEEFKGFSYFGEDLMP

[3] = test system: murine leukemias and solid tumors; settings: cited from earlier work
PKC [4] = settings: K562 cells; cited from earlier work
[5] = test system: cyclin dependent kinase 2 (Cdk2); settings: at 5 ng/ml; cited from earlier work
PKC [6] = settings: [3H]phorbol dibutyrate competition; read-out: Ki for binding; cited from earlier work
[7] = test system: squamous cell carcinoma and melanoma; settings: used topically; cited from earlier work
NCI 60 cell line screen = settings: cited from earlier work
Hermissenda Crassicornis = assay: Pavlovian conditioning of Hermissenda, memory retention; assay type: in vivo
Method: Specimens of Hermissenda Crassicornis were maintained in artificial sea water (ASW) at 15° for three days in perforated 50-ml conical centrifuge tubes before starting experiments. […] For selected experiments lactacysteine (10 μM) or anisomycin was added to the ASW.
Pavlovian conditioning of Hermissenda involves repeated pairings of a neutral stimulus, light, with an unconditioned stimulus, orbital shaking. (See, Lederhendler et al. (24) and Epstein et al. (6)). A rotation/shaking stimulus excites the statocyst hair cells and thereby elicits an unconditioned response: a brisk contraction of the muscular undersurface called a foot, accompanied by adherence or “clinging” to the surface that supports the foot. Before conditioning, light elicits a weakly positive phototaxis accompanied by lengthening of the foot. After sufficient light-rotation pairings, light no longer elicits phototaxis, but instead elicits a new response (24): the “clinging” and foot shortening previously elicited only by the unconditional stimulus (FIG. 1). Thus, the meaning of the unconditioned stimulus, rotation or orbital shaking, has been transferred to the conditioned stimulus and is manifested by a light-elicited foot contraction—a negative change of foot length. This conditioned response to light can last for weeks, is not produced by randomized light and rotation, is stimulus-specific, and shares the other defining characteristics of mammalian Pavlovian Conditioning.
Pavlovian conditioning of Hermissenda has well-defined training parameters that produce progressively longer-lasting retention of the learned conditioned response. Two training events (2 TE) of paired light and orbital shaking (see “Methods”), for example, induce a learned conditioned response (light-elicited foot contraction or shortening) that persists without drug treatment for approximately 7 minutes. Four to six training events (4-6 TE) induce a conditioned response that persists up to several hours, but disappears approximately by 1 day after training. Nine TE produces long-term associative memory lasting many days and often up to two weeks.
All animals were tested with the CS alone at 4 h, then at 24-h intervals.

CA1 neurons = assay: acute hippocampal slices, number of dendritic spines (spinophilin); assay type: cell-based; settings: PKC blocker
calexcitin = calexcitin immunostaining in Hermissenda B-photoreceptors; assay type: in vivo
Method: Following experimental treatments and testing, animals were rapidly decapitated, the central nervous systems (CNS) removed and then fixed in 4% para-formaldehyde in 20 mM Tris-buffered (pH 8) natural seawater (NSW; 0.2 μm micropore-filtered). The CNSs were then embedded in polyester wax (20), sectioned (6 μm) and immunostained using a biotinylated secondary antibody coupled to avidin-bound microperoxidase (ABC method, Vector), Aminoethylcarbazole (AEC) was used as the chromogen. The primary polyclonal antibody (designated 25U2) was raised in rabbits from the full length calexcitin protein extracted from squid optic lobes. Gray-scale intensity measures were done from digital photomicrographs on circumscribed cytoplasmic areas of the B-photoreceptors minus the same background area (non-staining neuropile).
Micrographs (A, B) depict representative tissue sections from Hermissenda eyes that were immunolabeled with the calexcitin polyclonal antibody, 25U2. […] Differences in staining intensities were measured and recorded as gray-scale intensities (0-256; B-cell cytoplasm minus tissue background).

Rat IGF-IR cells = assay: overall protein synthesis, [35S]methionine incorporation; settings: PKC inhibitor also present
Method: [^35S]Methionine (9.1 μCi) was then added to the medium followed by analysis of radiolabel.

PKC [8] = assay: PKC activity (histone phosphorylation) in Hermissenda nervous systems; assay type: in vivo; settings: anisomycin 1.0 ng/ml with each bryostatin 0.25 ng/ml exposure, three successive days
Method: Cells were homogenized by sonication (5 sec, 25 W) in 100 μl of 100 mM Tris-HCL pH 7.4 buffer containing 1 mM EGTA, 1 mM PMSF, and 50 mM NaF. Homogenate was transferred to a polyallomer centrifuge tube and was centrifuged at 100,000×g for 10 min at 4°. The supernatant was removed and immediately frozen on dry ice. The particulate fraction was resuspended by sonication in 100 μl of the same buffer and stored at −80°. To measure PKC, 10 μl of cytosol or particulate fraction was incubated for 15 min at 37° in the presence of 10 μM histones, 4.89 mM CaCl2, 1.2 μg/μl phosphatidyl-L-serine, 0.18 μg/μl 1.2-dioctanoyl-sn-glycerol, 10 mM MgCl2, 20 mM HEPES (pH 7.4), 0-8 mM EDTA, 4 mM EGTA, 4% glycerol, 8 μg/ml aprotinin, 8 μg/ml leupeptin, and 2 mM benzamidine. 0.5 μCi [γ^32-P]ATP was added and ^32P-phosphoprotein formation was measured by adsorption onto phosphocellulose as described previously (25). This assay was used with slight adjustments for either Hermissenda nervous system homogenates or cultured mammalian neuron homogenates.
Histone phosphorylation (See “Methods”) in isolated circumesophageal nervous systems was then measured in the cytosol fraction. […] (FIG. 12, 13).

protein kinase C = settings: (−)-enantiomer; cited from earlier work
sAPP secretion = settings: control and AD fibroblasts; cited from earlier work
[9] = 2000 IU/day; cited from earlier work
[10] = A-ring bryologs, read-out: affinity for PKC

For `CCCCCCCC(=O)O[C@H]1/C(=C/C(=O)OC)C[C@H]2C[C@H](CO)OC(=O)C[C@H](O)C[C@@H]3CCC[C@H](C[C@@H]4CCO[C@H](/C=C/C(C)(C)[C@]1(O)O2)O4)O3` [Analog 1], the “potency relative to bryostatin-1” value (PKC [1]) is listed as “about 100 times”, the “affinity for PKC, in words” value (PKC [2]) is listed as “highest affinity for PKC” and the Ki (PKC [2]; read-out: PKC Affin) is listed as 0.25 nM.

For `CCCCCCCC(=O)O[C@H]1/C(=C/C(=O)OC)C[C@H]2C[C@H](CO)OC(=O)C[C@H](O)CCOCC[C@@H]3CCO[C@H](/C=C/C(C)(C)[C@]1(O)O2)O3` [Analog 2], the “affinity for PKC, in words” value (PKC [2]) is listed as “maintains high affinity for PKC” and the Ki (PKC [2]; read-out: PKC Affin) is listed as 6.5 nM.

In the case of `CCCCCC1CC1CC1CC1CCCCCCCC(=O)O` (stereo not drawn) [DCP-LA, 2-[(2-pentylcyclopropyl)methyl]cyclopropaneoctanoic acid], the “concentration of maximal effect on PKCε” value (PKCε) is given as 100 nM.

For `C=C(C)[C@]12C[C@@H](COC(=O)c3ccccc3)[C@@]34OC5(O[C@@H]1[C@@H]3C1O[C@]1(CO)[C@@H](O)[C@@]1(O)[C@H]4[C@@H](C(C)CCCCCC[C@@H]5O)C(C)[C@@H]1OC(=O)c1ccccc1)O2` (stereo partly drawn) [Gnidimacrin], the “concentrations displaying potent antitumor activity” value [3] is given as 0.1 to 1 nM, the “concentration at which it acts as a PKC activator” value (PKC [4]) is given as 0.3 nM and the “inhibition of Cdk2” value [5] is given as 100%.

For `CC1=C[C@]23C(=O)[C@@H](C=C(COC(=O)c4ccccc4)[C@@H](O)[C@]2(O)[C@H]1OC(=O)c1ccccc1)[C@H]1[C@@H](C[C@H]3C)C1(C)C` [Ingenol 3,20-dibenzoate], the Ki (PKC [6]) is listed as 240 nM.

For `C/C=C(/C)C(=O)O[C@H]1C(C)=C[C@]23C(=O)[C@@H](C=C(CO)[C@@H](O)[C@]12O)[C@H]1[C@@H](C[C@H]3C)C1(C)C` [Ingenol-3-angelate], the antitumor activity [7] is listed as “possesses antitumor activity”.

In the case of `CC1=CC[C@H](C)C(C)(C)[C@@H]1/C=C/C(C)=C/CC[C@@]1(CO)[C@H](CCCO)/C(=C(/C)C=O)CC[C@]1(C)O` [Iripallidal], the “GI50 (concentration required to inhibit growth by 50%)” value (NCI 60 cell line screen) is given as “from micromolar to nanomolar range”.

For `CC(=O)N[C@@H](CSC(=O)[C@]1([C@@H](O)C(C)C)NC(=O)[C@H](C)[C@@H]1O)C(=O)O` [Lactacysteine], the “acquisition or retention of behavioral training” value (Hermissenda Crassicornis; lactacysteine 10 μM alone for 4 h, 2-paired TEs 24 hrs later) was “no acquisition or retention of behavioral training” and the “memory after single bryostatin exposure followed by 2 TE” value (Hermissenda Crassicornis; lactacysteine 10 μM together with bryostatin 0.25 ng/ml for 4 h) was “long-term memory lasting many days”.

With `Cn1cc(C2=C(c3cn(CCCSC(=N)N)c4ccccc34)C(=O)NC2=O)c2ccccc21` [RO-31-8220] the “effect on bryostatin-induced ELAV transport and spine increase” value (CA1 neurons) was “suppressed”.

In the case of `CN(C)C[C@H]1CCn2c(c(C3=C(c4cn(C)c5ccccc45)C(=O)NC3=O)c3ccccc32)C1` [Ro-32], the “effect on long-term memory induction” value (Hermissenda Crassicornis; Ro-32 immediately after bryostatin plus training) is reported as “did not prevent long-term memory induction”, the “effect on 6 TE plus bryostatin” value (Hermissenda Crassicornis; applied pre-training during dark adaptation) is reported as “blocked” and the “effect on learning-specific calexcitin increases in the Type B cell” value (calexcitin; in vivo) is reported as “prevented”. For the same molecule, the “effect on bryostatin-induced increase of protein synthesis” value (Rat IGF-IR cells) was “partially blocked” and the “effect on bryostatin-induced increase of protein synthesis” value (Rat IGF-IR cells; listed as Ro-32-0432) was “increasing significantly less”.

For `COc1ccc(C[C@H]2NC[C@H](O)[C@H]2OC(C)=O)cc1` [anisomycin], the “effect on memory retention produced by 9 TE” value (Hermissenda Crassicornis; 4 hour anisomycin treatment, no bryostatin) was “eliminated all memory retention”, the “effect on memory from single 4 hour bryostatin exposure with 2 TE” value (Hermissenda Crassicornis; anisomycin 1.0 μg/ml) was “entirely eliminated” and the “effect on long-term retention after three-day bryostatin treatments” value (Hermissenda Crassicornis; anisomycin 1 μg/ml for four hours post-training, 2-TEs) was “did not prevent long-term retention”. The “effect on calexcitin level” value (calexcitin; anisomycin immediately after 2-paired TEs, 3 days of 4-hr bryostatin) was “did not reduce” and the “effect on PKC activity, cytosolic and membrane fractions” value (PKC [8]) was “markedly reduced”.

In the case of `CCCCCCCC(=O)OC1C(=CC(=O)OC)CC2CC(CO)OC(=O)CC(O)CCOC(C(C)(C)C)CC3CCOC(C=CC(C)(C)C1(O)O2)O3` (stereo not drawn) [bryolog 3], the Ki (PKC [2]; [10]) is given as 6.5 nM.

In the case of `CCCCCCCC(=O)OC1C(=CC(=O)OC)CC2CC(CO)OC(=O)CC(O)CCOC(c3ccccc3)CC3CCOC(C=CC(C)(C)C1(O)O2)O3` (stereo not drawn) [bryolog 4], the Ki (PKC [2]; [10]) is listed as 2.3 nM.

In the case of `CCCCCCCC(=O)OC1C(=CC(=O)OC)CC2CC(CO)OC(=O)CC(O)CCOC(CCCc3ccc(Br)cc3)CC3CCOC(C=CC(C)(C)C1(O)O2)O3` (stereo not drawn) [bryolog 5], the Ki (PKC [2]; [10]) is listed as 1.9 nM.

In the case of `COc1ccc2c(c[n+](C)c3c4cc5c(cc4ccc23)OCO5)c1OC` [chelerythrine], the “effect on bryostatin-induced ELAV transport and spine increase” value (CA1 neurons) is reported as “suppressed”.

In the case of `CCCCCCCCc1ccc2c3c(c[nH]c13)C[C@@H](CO)NC(=O)[C@H](C(C)C)N2C` [octylindolactam V, Octylindolactam V], the EC50 (protein kinase C) is given as 29 nM.

In the case of `CN[C@@H]1C[C@H]2O[C@@](C)([C@@H]1OC)n1c3ccccc3c3c4c(c5c6ccccc6n2c5c31)C(=O)NC4` [staurosporine], the “effect on benzolactam-induced sAPP secretion” value (sAPP secretion) is listed as “eliminated the effects of benzolactam”.

For vitamin E, the cognitive abilities [9] is listed as “did not enhance cognitive abilities” and the mortality and morbidity [9] is listed as “reduced mortality and morbidity”.
